Laboratory results published in PubChem BioAssay AID1963834 (Molecular Pharmacology Branch, DTP, NCI, 2024).

Test system: 873145-292-R-J1-PDC complex spheroid viability
Assay: Anticancer human tumor 873145-292-R-J1-PDC patient-derived renal clear cell carcinoma cell line growth inhibition [POLQ]
Details: for IC50: curve of first compound; for viability, T/C: stronger effect = lower value
Procedure, shortened: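 Three-cell-type spheroids modelling solid tumor plus stroma served as the readout system; POL inhibitors were tested individually and in combination, concentration ranges set by clinical Cmax where known.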

[1] = second compound 0.0316 µM, first compound 0.0316 µM
[2] = second compound 0.0316 µM, first compound 0.1 µM
[3] = second compound 0.0316 µM, first compound 0.316 µM
[4] = second compound 0.0316 µM, first compound 1 µM
[5] = second compound 0.0316 µM, first compound 3.16 µM
[6] = second compound 0.0316 µM, first compound 10 µM
[7] = second compound 0.1 µM, first compound 0.0316 µM
[8] = second compound 0.1 µM, first compound 0.1 µM
[9] = second compound 0.1 µM, first compound 0.316 µM
[10] = second compound 0.1 µM, first compound 1 µM
[11] = second compound 0.1 µM, first compound 3.16 µM
[12] = second compound 0.1 µM, first compound 10 µM
[13] = second compound 0.316 µM, first compound 0.0316 µM
[14] = second compound 0.316 µM, first compound 0.1 µM
[15] = second compound 0.316 µM, first compound 0.316 µM
[16] = second compound 0.316 µM, first compound 1 µM
[17] = second compound 0.316 µM, first compound 3.16 µM
[18] = second compound 0.316 µM, first compound 10 µM
[19] = second compound 1 µM, first compound 0.0316 µM
[20] = second compound 1 µM, first compound 0.1 µM
[21] = second compound 1 µM, first compound 0.316 µM
[22] = second compound 1 µM, first compound 1 µM
[23] = second compound 1 µM, first compound 3.16 µM
[24] = second compound 1 µM, first compound 10 µM
[25] = second compound 3.16 µM, first compound 0.0316 µM
[26] = second compound 3.16 µM, first compound 0.1 µM
[27] = second compound 3.16 µM, first compound 0.316 µM
[28] = second compound 3.16 µM, first compound 1 µM
[29] = second compound 3.16 µM, first compound 3.16 µM
[30] = second compound 3.16 µM, first compound 10 µM
[31] = second compound 10 µM, first compound 0.0316 µM
[32] = second compound 10 µM, first compound 0.1 µM
[33] = second compound 10 µM, first compound 0.316 µM
[34] = second compound 10 µM, first compound 1 µM
[35] = second compound 10 µM, first compound 3.16 µM
[36] = second compound 10 µM, first compound 10 µM
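Further: spheroids exposed to compounds for 7 days before viability readout.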
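Wherever viability, T/C is given: luminescence signal used as surrogate for viable cell content; 100% = DMSO vehicle control viability.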

CC(C)n1c(=O)n(C)c2cnc3cc(F)c(-c4ccc(OCCCN5CCCCC5)nc4)cc3c21 + COC1C(OC(N)=O)C(O)C(Oc2ccc3c(O)c(NC(=O)c4ccc(O)c(CC=C(C)C)c4)c(=O)oc3c2C)OC1(C)C
IC50 (second compound 0.0316 µM): > 10 µM | IC50 (second compound 0.1 µM): > 10 µM | IC50 (second compound 0.316 µM): > 10 µM | IC50 (second compound 1 µM): > 10 µM | IC50 (second compound 3.16 µM): > 10 µM | IC50 (second compound 10 µM): > 10 µM | viability, T/C [1]: 96% | viability, T/C [2]: 93% | viability, T/C [3]: 99.2% | viability, T/C [4]: 105% | viability, T/C [5]: 92.8% | viability, T/C [6]: 82.5% | viability, T/C [7]: 94% | viability, T/C [8]: 96.7% | viability, T/C [9]: 92.9% | viability, T/C [10]: 90% | viability, T/C [11]: 100% | viability, T/C [12]: 90.8% | viability, T/C [13]: 95.5% | viability, T/C [14]: 98.9% | viability, T/C [15]: 109% | viability, T/C [16]: 87.3% | viability, T/C [17]: 104% | viability, T/C [18]: 78.9% | viability, T/C [19]: 105% | viability, T/C [20]: 106% | viability, T/C [21]: 92.9% | viability, T/C [22]: 94.1% | viability, T/C [23]: 90.8% | viability, T/C [24]: 82.7% | viability, T/C [25]: 96% | viability, T/C [26]: 104% | viability, T/C [27]: 98.7% | viability, T/C [28]: 91.7% | viability, T/C [29]: 90.5% | viability, T/C [30]: 86.9% | viability, T/C [31]: 96.2% | viability, T/C [32]: 91.1% | viability, T/C [33]: 104% | viability, T/C [34]: 90.5% | viability, T/C [35]: 107% | viability, T/C [36]: 88.7%

CCc1cc2c(N3CCc4c(cc(Cn5ccnc5)cc4-c4cn(C)nc4C(F)(F)F)C3=O)cc(C)nc2c(OC)n1 + COC1C(OC(N)=O)C(O)C(Oc2ccc3c(O)c(NC(=O)c4ccc(O)c(CC=C(C)C)c4)c(=O)oc3c2C)OC1(C)C
IC50 (second compound 0.0316 µM): > 10 µM | IC50 (second compound 0.1 µM): > 10 µM | IC50 (second compound 0.316 µM): > 10 µM | IC50 (second compound 1 µM): > 10 µM | IC50 (second compound 3.16 µM): > 10 µM | IC50 (second compound 10 µM): > 10 µM | viability, T/C [1]: 96% | viability, T/C [2]: 98.1% | viability, T/C [3]: 93.6% | viability, T/C [4]: 99.2% | viability, T/C [5]: 86.6% | viability, T/C [6]: 83% | viability, T/C [7]: 92.5% | viability, T/C [8]: 105% | viability, T/C [9]: 96.4% | viability, T/C [10]: 88.5% | viability, T/C [11]: 90.4% | viability, T/C [12]: 79.8% | viability, T/C [13]: 113% | viability, T/C [14]: 97.5% | viability, T/C [15]: 94.3% | viability, T/C [16]: 90.8% | viability, T/C [17]: 89.2% | viability, T/C [18]: 83.3% | viability, T/C [19]: 99.4% | viability, T/C [20]: 106% | viability, T/C [21]: 78.8% | viability, T/C [22]: 84.7% | viability, T/C [23]: 83.6% | viability, T/C [24]: 84.2% | viability, T/C [25]: 99.6% | viability, T/C [26]: 93% | viability, T/C [27]: 99.8% | viability, T/C [28]: 82.7% | viability, T/C [29]: 77.5% | viability, T/C [30]: 74% | viability, T/C [31]: 88.1% | viability, T/C [32]: 82.8% | viability, T/C [33]: 101% | viability, T/C [34]: 77.7% | viability, T/C [35]: 92.6% | viability, T/C [36]: 96.2%
